Laboratory results taken from patent US11690854B2, “Methods of treating heavy menstrual bleeding” (priority 2018, dated 2023).
Marks after values point to notes of the source that are not given here.

What was measured:
[1] = system: women with moderate to severe endometriosis-related pain; test: PROMIS Fatigue SF-6a in Phase III study of endometriosis pain; type: in vivo, human
Procedure: A Phase III study was conducted to assess the effects of elagolix for clinically meaningful reductions in pain and other symptoms. Data provided examined the impact of elagolix on fatigue in women with moderate to severe endometriosis-related pain. […] Fatigue was assessed using the Patient Reported Outcome Measurement Information System (PROMIS®), Fatigue Short Form (SF) 6a. Six items assessed a range of self-reported symptoms from mild, subjective feelings of tiredness to overwhelming, sustained sense of exhaustion that likely decreases one's ability to execute daily activities and function normally. The domain was divided into the experience of fatigue (frequency, duration and intensity) and impact of fatigue on physical, mental and social activities. All items assessed fatigue over the previous seven days. […] Lower scores indicated less fatigue. Post-hoc, Fatigue SF-6a raw scores were converted to T-scores. The T-score rescales […] the raw score into a standardized score such that the general population has a mean of 50 and a standard deviation (SD) of 10. Analysis: […] ANCOVA controlled for treatment as main effect. Baseline Fatigue SF-6a T-score included as a covariate.

[2] = system: cytochrome P450 (CYP) 3A enzyme; test: Drug interaction potential: CYP3A
Source text: Co-administration with ELAGOLIX may decrease plasma concentration of drugs that are substrates of CYP3A.
Elagolix is a substrate of CYP3A, P-gp, and organic anion transporting polypeptide (OATP)1B1. Clinically meaningful interactions are not expected when ELAGOLIX is co-administered with drugs that inhibit CYP3A or P-gp.

women with endometriosis = test: Six Phase 2 studies of elagolix for endometriosis associated pain; type: in vivo, human
Procedure: Efficacy was assessed for dysmenorrhea (DYS), nonmenstrual pelvic pain (NMPP), dyspareunia, and general pelvic pain with a range of instruments. Additional efficacy assessments included quality of life and the use of analgesics for control of endometriosis pain. Across these Phase 2 studies, the enrollment criteria were similar and were intended to select premenopausal women aged 18 to 49 years of age with endometriosis confirmed by visual inspection (laparoscopy or laparotomy within 5 to 8 years of screening) who experienced moderate to severe endometriosis-associated pain. Women were included if they had regular menstrual cycles and no significant uterine fibroids or pelvic lesions. Total daily doses of elagolix ranging from 75 to 250 mg were evaluated across a range of pain instruments measuring […], or general pelvic pain (including patient global impression of change), during 12 or 24 weeks of treatment. […] Overall, 475 women have received elagolix for at least 12 weeks and 278 women for a period of at least 24 weeks. The majority of women were Caucasian (78.9% to 100%), while approximately 7% were black and approximately 4.5% were Hispanic. The mean age across these six Phase 2 studies was 31 to 33 years (range 18 to 48 years) and mean body mass index (BMI) of 23 to 28 kg/m. […] In addition, the majority were receiving analgesic medications (nonsteroidal anti-inflammatory drugs, opioids, and/or other) prior to study enrollment

[3] = Binding to human plasma proteins; type: in vitro ADME; conditions: read-out: % Bound to human plasma proteins (converted)
[4] = system: premenopausal women with endometriosis with associated pain; test: Phase 3 Study EM-II (and extension EM-IV); type: in vivo, human
Source text: Each placebo-controlled study assessed the reduction in endometriosis-associated pain over 6 months of treatment. More than 75 percent of women who completed Study EM-I and EM-II enrolled in the extension studies for an additional 6 month treatment period. Subjects were followed for up to 12 months post-treatment. The co-primary efficacy endpoints were the proportion of responders for dysmenorrhea and pelvic pain not related to menses (also known as non-menstrual pelvic pain [NMPP]) at Month 3 compared to placebo. The primary analysis independently evaluated these endpoints using a daily diary that asked patients to assess their pain and its impact on their daily activities, over the previous 24 hours. […] Women were defined as responders if they experienced clinically meaningful reduction in dysmenorrhea and/or NMPP with no increased analgesic use for endometriosis associated pain. Dyspareunia was evaluated as a secondary endpoint using the Daily Endometriosis Pain Impact Scale.

QTc interval = test: Thorough QT study; type: in vivo; conditions: up to 1200 mg; 17- to 23-fold of therapeutic concentrations; active control moxifloxacin 400 mg
Procedure: The effect of elagolix (up to 1200 mg) on QTc interval was evaluated in an active-controlled (moxifloxacin 400 mg) thorough QT study.

monkeys = test: Repeat-dose study in monkeys; type: in vivo; conditions: 75, 150, 300 and 600 mg/kg/day, all doses
Source text: Based on pharmacologic actions of elagolix in humans a reversible effect on fertility may be expected in women.

rats = test: Lactation study in rats (secretion in milk); type: in vivo
Procedure: Pregnant rats were given diet containing elagolix throughout the gestation and lactation periods to achieve a daily elagolix dose of 400 mg/kg. During nursing the dams and litters were divided into restricted feeding and non-restricted groups to determine whether elagolix was secreted in the mother's milk. […] In pups of the non-restricted feeding group, elagolix plasma concentrations were measurable and approximately 1% of the mother's plasma concentrations.

SMILES: COc1cccc(-c2c(C)n(Cc3c(F)cccc3C(F)(F)F)c(=O)n(C[C@H](NCCCC(=O)O)c3ccccc3)c2=O)c1F [Elagolix, 4-((R)-2-[5-(2-fluoro-3-methoxy-phenyl)-3-(2-fluoro-6-trifluoromethyl-benzyl)-4-methyl-2,6-dioxo-3,6-dihydro-2H-pyrimidin-1-yl]-1-phenyl-ethylamino)-butyric acid]
- PROMIS Fatigue SF-6a T-Score ([1]; 200 mg, Month 1): statistically significant reduction in fatigue
- PROMIS Fatigue SF-6a T-Score ([1]; both doses (150 mg QD, 200 mg BID), Months 3 and 6): Statistically significant reductions relative to placebo
- Induction of CYP3A [2]: weak to moderate inducer
- Substrate of CYP3A [2]: substrate
- Safety and tolerability (women with endometriosis; all daily doses (100 to 250 mg)): safe and well tolerated
- Incidence of AEs that led to discontinuations (women with endometriosis; completed Phase 2 studies): 4.8%
- Effect on DYS and NMPP versus DMPA-SC (women with endometriosis; daily dose of 150 mg): comparable effect to subcutaneous depot medroxyprogesterone acetate (DMPA-SC)
- Effect versus leuprorelin (women with endometriosis; daily doses of 150 mg and 250 mg): less effect compared with leuprorelin
- Reduction in endometriosis-associated pain (women with endometriosis; daily doses of 100 to 250 mg, 12 or 24 weeks): clinically meaningful reductions in endometriosis-associated pain
- Days of bleeding per month (eDiary) (women with endometriosis; versus placebo): fewer days of bleeding per month compared with patients who received placebo
- fraction unbound [3]: 0.2
- Proportion of responders for Dyspareunia (Daily Endometriosis Pain Impact Scale) ([4]; 150 mg QD, Month 3, n/N 70/159, placebo 39.5): 44.0%
- Proportion of responders for dysmenorrhea (Daily Endometriosis Pain Impact Scale) ([4]; 150 mg QD, Month 3, n/N 96/221, placebo 22.7): 43.4%***
- Proportion of responders for Non-Menstrual Pelvic Pain (Daily Endometriosis Pain Impact Scale) ([4]; 150 mg QD, Month 3, n/N 110/221, placebo 36.5): 49.8** %
- Proportion of responders for Dyspareunia (Daily Endometriosis Pain Impact Scale) ([4]; 150 mg QD, Month 6, n/N 65/163, placebo 39.4): 39.9%
- Proportion of responders for dysmenorrhea (Daily Endometriosis Pain Impact Scale) ([4]; 150 mg QD, Month 6, n/N 102/221, placebo 25.4): 46.2%***
- Proportion of responders for Non-Menstrual Pelvic Pain (Daily Endometriosis Pain Impact Scale) ([4]; 150 mg QD, Month 6, n/N 114/221, placebo 40.6): 51.6%**
- Proportion of responders for Dyspareunia (Daily Endometriosis Pain Impact Scale) ([4]; 200 mg BID, Month 3, n/N 87/162, placebo 39.5): 53.7** %
- Proportion of responders for Non-Menstrual Pelvic Pain (Daily Endometriosis Pain Impact Scale) ([4]; 200 mg BID, Month 3, n/N 130/225, placebo 36.5): 57.8*** %
- Proportion of responders for dysmenorrhea (Daily Endometriosis Pain Impact Scale) ([4]; 200 mg BID, Month 3, n/N 163/225, placebo 22.7): 72.4*** %
- Proportion of responders for Dyspareunia (Daily Endometriosis Pain Impact Scale) ([4]; 200 mg BID, Month 6, n/N 92/165, placebo 39.4): 55.8*** %
- Proportion of responders for Non-Menstrual Pelvic Pain (Daily Endometriosis Pain Impact Scale) ([4]; 200 mg BID, Month 6, n/N 140/225, placebo 40.6): 62.2*** %
- Proportion of responders for dysmenorrhea (Daily Endometriosis Pain Impact Scale) ([4]; 200 mg BID, Month 6, n/N 173/225, placebo 25.4): 76.9*** %
- Effect on QTc interval (QTc interval): does not prolong the QTc interval
- Reproductive organ findings in repeat-dose study (monkeys): reversible atrophy of reproductive organs (cervix, uterus and vagina)
- Elagolix plasma concentrations in pups relative to the mother's plasma concentrations (rats; non-restricted feeding group, dams 400 mg/kg daily in diet): approximately 1%
- Secretion in milk (rats; rats, pup plasma as surrogate of exposure via lactation): minimally secreted in milk
- Elagolix plasma concentrations in pups (rats; restricted feeding litters, post natal day 10 and 20, dams 400 mg/kg daily in diet): not measurable
